Results: patent US20090075949A1, “Use of dipyridamole in combination with antithrombotics for treatment and prevention of thromboembolic diseases” (priority 2004, published 2009)

Experiments:
activated platelets = assay: Annexin V binding after incubation of cells with DIP; format: cell-based
[1] = local formation of fibrin in experimental animals after angioplasty; format: in vivo
[2] = arterial circulation of the brain, rabbit model; cited from earlier work
[3] = ESPS-2; compared with low-dose aspirin / aspirin alone; cited from earlier work

OCCN(CCO)c1nc(N2CCCCC2)c2nc(N(CCO)CCO)nc(N3CCCCC3)c2n1 [dipyridamole, 2,6-bis(diethanolamino)-4,8-dipiperidino-pyrimido[5,4-d]pyrimidine]
binding of Annexin V to the surface of activated platelets (activated platelets; activated platelets): reduce the binding of Annexin V | Annexin V binding sites (activated platelets; incubation of cells, compared to pre-incubation, patients with anti-platelet therapy resistance (ASA or clopidogrel)): significant reduction | inhibition of fibrin formation versus full dose heparin ([1]; experimental animals after angioplasty): exceeds the level of inhibition by full dose anticoagulant treatment with heparin | local formation of fibrin ([1]; pretreatment, arterial tree, high flow rate): reduces the local formation of fibrin significantly | thrombus formation [2]: reduce thrombus formation | reduction of stroke risk [3]: as effective as low-dose aspirin
